Measurements as given in paper PMC4728507, “Bioactive Polycyclic Quinones from Marine Streptomyces sp. 182SMLY” (Marine Drugs, 2016).
Converted amounts (≈) assume the structure as drawn. Where two headings read alike, the source gives them in different places.

Legend:
[1] = system: glioma SHG-44 cells; assay: SRB assay, proliferation of glioma SHG-44 cells; assay type: cell-based; conditions: Homo sapiens, 72 h, read-out: IC50 inhibiting the proliferation of cells, SHG-44
Experimental: (§1) The compounds 1 and 2 were assayed for their activities inhibiting the proliferation of glioma C6, U251, U87-MG, and SHG-44 cells using the sulforhodamine B (SRB) assay. The SRB assay is a method that measures total cellular protein content for evaluating the activity of tested compounds against the proliferation of tumor cells. Doxorubicin (DOX) was used as a positive control. Glioma cells were treated with tested compounds for 72 h at different concentrations. […] N-acetyl-N-demethylmayamycin (1) and streptoanthraquinone A (2) were also assayed for their activity against normal human astrocytes (HA). The initial assay was conducted on the concentrations from 0.35 to 7.0 μM for 1 and on those from 1.65 to 16.5 μM for 2. The cell viability of HA cells from each tested concentration of both compounds was 100%.
(§2) Human glioma U251 and rat glioma C6 cells were cultured in DMEM (Dulbecco’s Modified Eagle Medium, Gibco, Thermo Fisher Scientific Inc., Waltham, MA, USA) with 10% FBS (Fetal Bovine Serum, PAA Laboratories Inc., Dartmouth, MA, USA), human glioma SHG-44 in RPMI-1640 Medium (Roswell Park Memorial Institution 1640 Medium, Gibco, Thermo Fisher Scientific Inc., Waltham, MA, USA), human glioma U87-MG cells in MEM (Minimum Essential Medium, Gibco), and normal human astrocytes (HA) in AM (Astrocyte Medium, ScienCell, Cat. No. 1801). All cells were incubated at 37 °C in a humidified incubator with 5% CO2. Cells after the third generation were used for experiment.
(§3) The SRB assay was used to evaluate the activity of the isolated compounds in inhibiting the proliferation of glioma U87-MG, U251, SHG-44, and C6 cells. Doxorubicin (DOX) was used as the positive control. Briefly, glioma cells were plated in a 96-well plate and then treated with different concentrations of tested compound after cells adhesion for 24 h. […] After dried, dye was dissolved in a 10 mM Tris buffer and measured at 515 nm on a microplate reader (BioTech, Winooski, VT, USA).

[2] = system: glioma U251 cells; assay: SRB assay, proliferation of glioma U251 cells; assay type: cell-based; conditions: Homo sapiens, U-251, 72 h, read-out: IC50 inhibiting the proliferation of cells, U251
Experimental: as §1, §2, §3

[3] = system: glioma C6, U251, U87-MG, and SHG-44 cells; assay: SRB assay, four glioma cell lines (summary ranges); assay type: cell-based; conditions: 72 h, read-out: IC50 range over four tested glioma cell lines
Experimental: as §1
The SRB assay was used to evaluate the activity of the isolated compounds in inhibiting the proliferation of glioma U87-MG, U251, SHG-44, and C6 cells. Doxorubicin (DOX) was used as the positive control. Briefly, glioma cells were plated in a 96-well plate and then treated with different concentrations of tested compound after cells adhesion for 24 h. After 72 h of the treatment, cells were fixed with 50 μL of a 10% cold TCA solution for 1 h at 4 °C, washed with distilled water five times, and then dried at room temperature. The dried cells were stained with 50 μL of 0.4% SRB for ten minutes and rinsed with a 1% acetic acid solution five times. After dried, dye was dissolved in a 10 mM Tris buffer and measured at 515 nm on a microplate reader (BioTech, Winooski, VT, USA).

[4] = system: glioma U87-MG cells; assay: SRB assay, proliferation of glioma U87-MG cells; assay type: cell-based; conditions: Homo sapiens, U-87 MG, 72 h, read-out: IC50 inhibiting the proliferation of cells, U87-MG
Experimental: as §1, §2, §3

[5] = system: glioma U251 cells; assay: Apoptosis in glioma U251 cells, flow cytometry with Annexin V-FITC/PI double staining; assay type: cell-based, human; conditions: 36 h, control 3.58%
Experimental: N-acetyl-N-demethylmayamycin (1) and streptoanthraquinone A (2) were further tested for their ability to induce apoptosis in glioma U251 cells by flow cytometry using Annexin V-FITC/PI double staining.
Figure 6 N-acetyl-N-demethylmayamycin (1) and streptoanthraquinone A (2) induced apoptosis in the glioma U251 cells quantified by cytometric analysis. U251 cells were treated with 1 (0.7 μM) or 2 (3.3 μM) for 36 h and then stained with Annexin-V FITC and PI double staining (B1: necrotic cells; B2: late apoptotic cells; B3: normal glioma cells; B4: early apoptotic cells). TEXT PRINTED IN THE PICTURE: 1: U251: B1: 2.87% (0.7 μM); U251: B2: 31.39% (0.7 μM); U251: B3: 54.79% (0.7 μM); U251: B4: 10.95% (0.7 μM) | 2: U251: B1: 3.00% (3.3 μM); U251: B2: 29.85% (3.3 μM); U251: B3: 56.75% (3.3 μM); U251: B4: 10.40% (3.3 μM) DOUBTS OF THE COPYIST ABOUT THIS PICTURE: 1, B3: 54.79% is partly covered by plot points, digits not certain / 2, B3: 56.75% is partly covered by plot points, digits not certain / The CON (untreated control) plot prints B1 0.28%, B2 2.17%, B3 96.14% (partly covered by plot points, 96.14 or 96.44), B4 1.41%; left out of lines because it is not a substance

[6] = system: Escherichia coli ATCC 25922; assay: Antimicrobial assay, micro broth dilution, E. coli; assay type: cell-based; conditions: ATCC 25922, micro broth dilution
Experimental: (§4) Compounds 1 and 2 were also determined for their activities against methicillin-resistant Staphylococcus aureus ATCC 43300 and Escherichia coli ATCC 25922.
(§5) The micro broth dilution method as described in the previous report was used to determine the antimicrobial activity of the isolated compounds against the methicillin-resistant Staphylococcus aureus ATCC 43300 and Escherichia coli ATCC 25922. Norfloxacin, a broad-spectrum antibiotic against both Gram-positive and Gram-negative bacteria, was used as the positive control.

[7] = system: glioma C6 cells; assay: SRB assay, proliferation of glioma C6 cells; assay type: cell-based; conditions: Rattus norvegicus, 72 h, read-out: IC50 inhibiting the proliferation of cells, C6
Experimental: as §1, §2, §3

[8] = system: normal human astrocytes (HA); assay: Activity against normal human astrocytes (HA); assay type: cell-based; conditions: Homo sapiens, Astrocyte; HA cells, second assay in higher concentrations
Experimental: as §1, §2

[9] = Activity against normal human astrocytes (HA); assay type: cell-based; conditions: human, normal human astrocytes (HA), initial assay, read-out: Cell viability of HA cells
Experimental: as §1, §2

[10] = system: methicillin-resistant Staphylococcus aureus ATCC 43300; assay: Antimicrobial assay, micro broth dilution, MRSA; assay type: cell-based; conditions: ATCC43300, ATCC 43300, micro broth dilution, read-out: MIC, growth of methicillin-resistant S. aureus
Experimental: as §4, §5

IC50 [1] [µM] | IC50 [2] [µM] | IC50 [3] [µM] | IC50 [4] [µM] | MIC, growth of E. coli [6] | IC50 [7] [µM] | MIC [10] [µM] | MIC ([6]; Escherichia coli, ATCC25922, read-out: MIC, growth of E. coli) [µM] | Structure (SMILES) | Increase of total apoptotic cells (early and late) compared to the control ([5]; U251, 0.7 μM) [%] | IC50 [8] [µM] | viability ([9]; each tested concentration from 0.35 to 7.0 μM) [%] | Increase of total apoptotic cells (early and late) compared to the control ([5]; U251, 3.3 μM) [%] | viability ([9]; each tested concentration from 1.65 to 16.5 μM) [%]
3.9 ± 0.4 | 0.7 ± 0.2 | 0.5 to 3.9 | 1.4 ± 0.1 | no activity | 0.5 ± 0.1 | 20 (≈ 9.83 µg/mL) | – | CC(=O)NC1CC(c2c(O)c3c(c4c(O)cc(C)cc24)C(=O)c2cccc(O)c2C3=O)OC(C)C1O (centres unmarked) [Compound 1, N-acetyl-N-demethylmayamycin] | 38.76 | 25 ± 1.3 | 100 | – | –
6.5 ± 1.1 | 3.3 ± 0.3 | 3.3 to 7.3 | 4.6 ± 0.3 | no activity | 7.3 ± 1.4 | – | – | CC(=O)OC1c2c3c(c(O)c4c2C(Cc2c(O)cc(C)cc2-4)OC1C)C(=O)c1cccc(O)c1C3=O (centres unmarked) [Compound 2, streptoanthraquinone A] | – | > 100 | – | 36.67 | 100
9 ± 0.8 | 6.7 ± 1.1 | 0.9 to 9 | 0.9 ± 0.1 | – | 1 ± 0.1 | – | – | COc1cccc2c1C(=O)c1c(O)c3c(c(O)c1C2=O)C[C@@](O)(C(=O)CO)C[C@@H]3O[C@H]1C[C@H](N)[C@H](O)[C@H](C)O1 [Doxorubicin (DOX), Doxorubicin, reference compound] | – | – | – | – | –
– | – | – | – | – | – | 62.6 (≈ 20 µg/mL) | 31.3 (≈ 10 µg/mL) | CCn1cc(C(=O)O)c(=O)c2cc(F)c(N3CCNCC3)cc21 [norfloxacin, reference compound] | – | – | – | – | –
